Data as given in US20110028554A1, “PHARMACEUTICAL COMPOSITIONS COMPRISING DIIODOTHYRONINE AND THEIR THERAPEUTIC USE” (UNIVERSITE JOSEPH FOURIER, priority 2007, published 2011).

Columns and labels:
Type in all cases: in vivo
[1] = Food intake of Wistar rats
Experimental: Adult male rat bred in the animal room facilities of Laboratory of Fundamental and Applied. Bioenergetics (Wistar strain) or purchased from Charles-River Laboratories, Domaine des oncins, L'ARBRESLE France [(genetically obese normoglycemic (Zucker or Fa/Fa) or diabetic (ZDF)] were caged individually in stainless steel hanging cages and maintained in a 22° C., 50±10% relative humidity and 12 h:12 h light:dark environment. All animals were fed ad libitum with a standard rat chow (Safe A04, Villemoisson, France) and tap water. Body mass and food intake were recorded twice/thrice a week and fresh food was provided, at the same time to ensure minimal disturbance to the animals' food, behavior.
Eight-week old rats (300 g±10 g) were anesthetized by simultaneous intraperitoneal injection of diazepam 4 mg/kg and ketamine 100 mg/kg. In order to maintain body temperature during the surgery (10 min), animals were placed on a warm blanket. After interscapular shaving, a small incision of 0.5 cm of the skin allows the subcutaneous implantation of a small pellet (containing rT3 or 3′,3-T2) with a 10-gauge precision trochar. The pellets, manufactured by Innovative Research of America (Sarasota, Fla., USA) are constituted of a biodegradable matrix that effectively and continuously release the active product in the animal.
3-5 diiodothyronine (3-5 T2) or 3-3′diiodothyronine (3-3′ T2) were used at different doses (5, 0.5, or 0.1 mg/pellet) were implanted in order to provide a continuous and constant drug delivery over 60 days (which represents 25 μg, 2.5 μg or 0.5 μg/day/100 g BW).

[2] = Body composition (adipose tissues, skeletal muscles, brown adipose tissue) of Wistar rats
Excerpt: At the end of the experimental period, animals were sacrificed by decapitation, in order to avoid the well-known effects of general anesthetics on mitochondrial metabolism. Blood, samples were immediately collected and plasma was frozen for subsequent determination of serum metabolites and hormones. Liver, muscles and fat depots were quickly excised and weighed. Liver median lobe was rapidly freeze-clamped. Muscles (plantaris, soleus and gastrocnemius) were frozen in isopentane precooled in liquid nitrogen. Mesenteric fat consisted, of adipose tissue surrounding the gastro-intestinal tract from the gastro-oesophageal sphincter to the end of the rectum with special care taken in distinguishing and removing the pancreas. Retroperitoneal fat pad was taken as the distinct depot behind each kidney along the lumbar muscles. Epididymal fat consisted, of adipose tissue on top of the epididymis. For subcutaneous depot measurement, a rectangular piece of skin was taken on the right side of each animal from the median line of the abdomen between the spine and the right hip to the first rib. Interscapular brown adipose tissue was removed and dissected free from adjacent muscles and white adipose tissue. The heart ventricles, the right kidney and the spleen were also excised, weighed and frozen.

liver mitochondria [3] = test: Liver mitochondrial oxygen consumption (JO2) of treated Wistar rats; settings: for Liver mitochondrial respiratory rate, phosphorylating condition (state 3), vs placebo: all substrates
Experimental: All measurements were performed using mitochondria (1.0 mg mitochondrial protein/ml) incubated with various substrates: • GM: glutamate/malate (5 mM/2.5 mM) • SR: succinate/rotenone (5 mM/5 μM), • GMS: glutamate/malate/succinate (5 mM/2.5 mM/5 mM), • Palm: palmitoyl carnitine (55 μM), • Octa: octanoyl carnitine (100 μM), • TMPD/AsC: TMPD/ascorbate (0.5 mM/0.5 mM), and • TMPD/AsC/DNP: TMPD/ascorbate/DNP (0.5 mM/0.5 mM/75 μM).
JO2 was recorded in the presence of the substrate and following the addition of 1 mM ADP (adenosine diphosphate) (state 3).
The oligomycin was added to the mitochondrial suspension to determine the non-phosphorylating respiratory-rate (state 4).
The major part of the liver and the red part of each quadriceps were rinsed, and chopped into isolation medium (250 mM sucrose, 20 mM Tris-HCl and 1 mM EGTA-Tris, pH 7.4). Nuclei and cell debris were removed, by centrifugation at 800 g for 10 min. Mitochondria were then isolated from the supernatant by spinning twice at 8,000 g for 10 minutes. The mitochondrial pellet was resuspended in 0.5 ml of isolation buffer and kept on ice. Mitochondrial protein was measured by the bicinchoninic acid method (Pierce, Rockford, Ill.). The final mitochondrial suspensions were maintained on ice and were used for measurements of oxygen consumption rate and reactive oxygen species (ROS) production.
The rate of mitochondrial oxygen consumption (JO2) was measured at 30° C. in an incubation chamber with a Clark-type O2 electrode filled with 2 ml of incubation medium (125 mM KCl, 10 mM Pi-Tris, 20 mM Tris-HCl, 0.1 mM EGTA, pH 7.2). All measurements were performed using mitochondria (1.0 or 0.2 mg mitochondrial protein/ml for liver and skeletal muscle) incubated either with various substrates: glutamate/malate (5 mM/2.5 mM) and succinate (5 mM), alone or in combination, palmitoyl carnitine (55 μM) and octanoyl carnitine (100 μM). For each substrate, JO2 was recorded in the presence of the substrate alone (State 2) and following the addition of 1 mM ADP (state 3). Oligomycin (1.25 μg/mg protein) was added to the mitochondrial suspension to determine the non-phosphorylating respiratory rate (state 4). The incubation medium was constantly stirred with a built-in electromagnetic stirrer and bar flea. The efficiency of the mitochondrial oxidative phosphorylation was assessed by the state 3/state 4 ratio which measures the degree of control imposed on oxidation by phosphorylation (respiratory control ratio, RCR).

liver mitochondria [4] = test: Oxidative phosphorylation efficiency (ATP/O) in liver mitochondria of treated Wistar rats; settings: 3 weeks continuous subcutaneous 250 μg/kg, fatty acids (palmitoyl-, octanoyl-) and succinate as substrates
Experimental: Effect of 3,5-T2 on oxidative phosphorylation efficiency investigated in liver mitochondria of Wistar rats isolated after 3 weeks of continuous treatment administered subcutaneously (250 μg/kg).
FIGS. 20A, 20B, 20C and 20D represent the ratio between ATP synthesis (nmol/min/g prot) and liver mitochondrial oxygen consumption (nmol/min/g prot) (P/O) as a function of liver mitochondrial oxygen consumption.
All measurements were performed using mitochondria (1.0 mg mitochondrial protein/ml) incubated with various substrates: • GM: glutamate/malate (5 mM/2.5 mM) • Palm: palmitoyl carnitine (55 μM) • Octa: octanoyl carnitine (100 μM) and • Succ+Rot: succinate/rotenone (5 mM/5 μM)
ATP/O ratios with 5 mM glutamate/2.5 mM malate/5 mM succinate or octanoyl-carnitine (100 μM) as respiratory substrates were determined from the ATP synthesis rate (JATP) versus respiratory rate JO2 with an ADP regenerating system based, on hexokinase (EC 2.7.1.1) plus glucose. JATP and JO2 were measured as described above in a medium containing 125 mM KCl, 1 mM EGTA, 5 mM Tris-Pi, 20 mM Tris-HCl, 0.1% fat free BSA (pH 7.2). JATP was determined from glucose 6-phosphate formation in presence of 20 mM glucose, 1 mM MgCl2, and 125 μM ATP. JO2 and JATP were modulated by addition of increasing concentrations of hexokinase (Nogueira et al, J Bioenerg Biomemb., 34:55-66, 2002).

N[C@@H](Cc1cc(I)c(Oc2ccc(O)cc2)c(I)c1)C(=O)O [3,5-T2, 3,5-diiodothyronine]
Food intake vs placebo ([1]; high dosage 25 μg/100 g BW): a clear increase was observed | Food intake vs placebo ([1]; low dosage 2.5 μg/100 g BW): almost not affect | Brown adipose tissue weight vs placebo ([2]; high dosage 25 μg/100 g BW): significantly increased | Fat masses, all localizations (retroperitoneal, epididymal, mesenteric, subcutaneous) vs placebo ([2]; high dosage 25 μg/100 g BW): significantly lower | Muscle mass / lean body mass vs placebo ([2]; high dosage 25 μg/100 g BW): not affected at all | Fat mass vs placebo ([2]; low dosage 2.5 μg/100 g BW): significantly decreased | Lean body mass vs placebo ([2]; low dosage 2.5 μg/100 g BW): not affected | Liver mitochondrial respiratory rate, non-phosphorylating (state 4, oligomycin), vs placebo (liver mitochondria [3]; high dosage 25 μg/100 g BW): substantially higher in the low 3,5-T2 group only | Liver mitochondrial respiratory rate, phosphorylating condition (state 3), vs placebo (liver mitochondria [3]; high dosage 25 μg/100 g BW): very significant increased respiratory rate | Liver mitochondrial respiratory rate, non-phosphorylating (state 4, oligomycin), vs placebo (liver mitochondria [3]; low dosage 2.5 μg/100 g BW): substantially higher | Liver mitochondrial respiratory rate, phosphorylating condition (state 3), vs placebo (liver mitochondria [3]; low dosage 2.5 μg/100 g BW): very significant increased respiratory rate | Efficiency of oxidative phosphorylation (ATP/oxygen ratio) (liver mitochondria [4]): lowers the yield of ATP synthesis
